The source of these data is ChEMBL document CHEMBL4406873, “Optimization of the chromone scaffold through QSAR and docking studies: Identification of potent inhibitors of ABCG2” (Eur J Med Chem, 2019).

For this experiment, the target named is T1, Broad substrate specificity ATP-binding cassette transporter ABCG2 (Homo sapiens, UniProt Q9UNQ0).
T1 sequence (Q9UNQ0 whole entry): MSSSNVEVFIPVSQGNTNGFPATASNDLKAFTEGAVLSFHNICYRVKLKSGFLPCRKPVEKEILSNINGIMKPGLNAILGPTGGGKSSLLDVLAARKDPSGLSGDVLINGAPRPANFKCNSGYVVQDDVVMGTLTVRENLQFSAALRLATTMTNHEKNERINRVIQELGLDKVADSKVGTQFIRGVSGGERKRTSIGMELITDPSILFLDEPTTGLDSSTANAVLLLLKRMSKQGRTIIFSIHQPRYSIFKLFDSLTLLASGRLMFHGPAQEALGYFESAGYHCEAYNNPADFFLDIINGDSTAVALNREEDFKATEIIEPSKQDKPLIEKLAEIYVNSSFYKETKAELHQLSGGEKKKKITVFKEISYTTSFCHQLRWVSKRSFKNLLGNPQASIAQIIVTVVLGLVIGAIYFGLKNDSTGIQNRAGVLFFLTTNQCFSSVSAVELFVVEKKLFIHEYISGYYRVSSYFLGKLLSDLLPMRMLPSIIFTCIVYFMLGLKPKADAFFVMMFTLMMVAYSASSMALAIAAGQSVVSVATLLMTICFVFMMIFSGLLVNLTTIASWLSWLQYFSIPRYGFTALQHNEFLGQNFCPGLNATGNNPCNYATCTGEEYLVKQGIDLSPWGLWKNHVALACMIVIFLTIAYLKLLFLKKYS
Nature of the experiment: Inhibition of ABCG2 (unknown origin) expressed in HEK293 cells assessed as increase in mitoxantrone accumulation incubated for 30 mins by flow cytometric method. It is filed as cell-based. In general terms: A flow cytometer gives signals particle by particle.

For orientation: EC50 means the concentration needed to bring the measured effect to its halfway point. `COc1ccc2[nH]cc(CCNC(=O)c3cc(=O)c4c(OCc5ccc(Br)cc5Br)cccc4o3)c2c1`: the 50% effective concentration (EC50) was 46 nM.
In the case of `COc1ccc2[nH]cc(CCNC(=O)c3cc(=O)c4c(OCc5cc(Br)cc(Br)c5)cccc4o3)c2c1` it was 97 nM.
